One data set can be described thus: in vivo. The conditions noted are these: po.
The conditions of data set [1]: cited from earlier work.
The conditions of data set [2]: cited from earlier work. This is another data set of the same source.

As usually defined, the Tmax is the time at which the peak concentration occurs. In general, half-life refers to the time needed for the level to fall by half in the phase considered. Low values mean rapid decline, high ones slow decline.

For the compound `CCC(CC)O[C@@H]1C=C(C(=O)O)C[C@H](N)[C@H]1NC(C)=O` [Active metabolite of oseltamivir, oseltamivir carboxylate], in “in vivo”, the Tmax turned out to be 8 h and the half-life is 840 min. Also, in data set [1] (75 mg twice daily), the “steady-state plasma trough concentrations versus minimum inhibitory concentration” value was “remain above the minimum inhibitory concentration for all influenza strains tested”. Also, the “metabolite clearance in renal impairment” value in data set [1] (human, in vivo) is recorded as “decreases linearly with creatinine clearance”. Moreover, in data set [1] (in vivo, po), the “absolute bioavailability of the active metabolite” value was “about 80%”, the “time to maximal concentrations” value is 3 to 4 h and the “time until detectable in plasma” value is at most 30 min. Further, in data set [1] (in vivo), the accumulation result is listed as “less than 2 fold”; the apparent half-life was 6 to 10 h; the “exposure at steady state, higher in elderly compared with young individuals” value is given as “approximately 25%”; the “time to steady-state plasma concentrations” value is recorded as at most 3 days.

Regarding `CCOC(=O)C1=C[C@@H](OC(CC)CC)[C@H](NC(C)=O)[C@@H](N)C1` [Oseltamivir, reference compound], in “in vivo”, the Tmax is 3 h and the half-life fell in the range of 300 to 420 min. For the same compound, the “absorption and conversion after oral administration” value in data set [1] (oral, G. He et al.) is “readily absorbed from the gastrointestinal tract and extensively converted to the active metabolite”.

`CC(=O)N[C@H]1[C@H]([C@H](O)[C@H](O)CO)OC(C(=O)O)=C[C@@H]1N=C(N)N` [zanamivir, 4-guanidino-2,4-dideoxy-2,3-dehydro-N-acetylneuraminic acid]: the median serum half-life in data set [2] (Cass et al.) is 2.5 and 5.05 hours. Moreover, in data set [2] (in vivo), the “dose systemically absorbed (median)” value is 10 to 20%, the “excreted unchanged in the urine” value is “approximately 90%”, the “time to maximum serum concentrations” value is 1 to 2 h and the tolerability entry is “well tolerated at all doses”.

The values above are taken from patent US7208176B2, “Drug delivery device containing neuraminidase inhibitor and an H1 antagonist” (Osmotica Corp., priority 2001, dated 2007).
